Laboratory results taken from ChEMBL document CHEMBL1201862, “PubChem BioAssay data set” (2004).
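In this assay, cells in 96-well plates receive the compound at five concentrations for 48 hours. Endpoints are linearly interpolated between the surrounding concentrations. Here, GI50 denotes the concentration required for 50% inhibition of growth.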 The source made the active and inactive calls. Cut-off read from the data, not from the text of the source: active = GI50 up to about 1.1 µM and inactive = higher.

Assays:
Experiment in all cases: growth of human tumour cells (NCI), 48 h
MOLT-4 = test system: MOLT-4
PC-3 = test system: PC-3
SNB-19 = test system: SNB-19
M14 = test system: M14
SF-295 = test system: SF-295
HCT-116 = test system: HCT-116
COLO 205 = test system: COLO 205
OVCAR-8 = test system: OVCAR-8
HOP-62 = test system: HOP-62
NCI/ADR-RES = test system: NCI/ADR-RES
OVCAR-4 = test system: OVCAR-4
NCI-H226 = test system: NCI-H226
SNB-75 = test system: SNB-75
EKVX = test system: EKVX
SK-OV-3 = test system: SK-OV-3
NCI-H23 = test system: NCI-H23
RPMI-8226 = test system: RPMI-8226
IGROV-1 = test system: IGROV-1
SW-620 = test system: SW-620
SR = test system: SR

## S=P(N1CC1)(N1CC1)N1CC1 [THIOTEPA]
MOLT-4
  GI50: 7.69 µM (inactive)
PC-3
  GI50: 217 µM (inactive)
SNB-19
  GI50: 115 µM (inactive)
M14
  GI50: 72.1 µM (inactive)
SF-295
  GI50: 33.1 µM (inactive)
HCT-116
  GI50: 116 µM (inactive)
COLO 205
  GI50: 141 µM (inactive)
OVCAR-8
  GI50: 110 µM (inactive)
HOP-62
  GI50: 31.3 µM (inactive)
NCI/ADR-RES
  GI50: 79.1 µM (inactive)
OVCAR-4
  GI50: 188 µM (inactive)
NCI-H226
  GI50: 110 µM (inactive)
SNB-75
  GI50: 97.3 µM (inactive)
EKVX
  GI50: 234 µM (inactive)
SK-OV-3
  GI50: 101 µM (inactive)
NCI-H23
  GI50: 36.1 µM (inactive)
RPMI-8226
  GI50: 176 µM (inactive)
IGROV-1
  GI50: 158 µM (inactive)
SW-620
  GI50: 140 µM (inactive)

## Cc1c2ccccc2c(/C=N/NC(=O)CSCC(=O)N/N=C/c2c3ccccc3c(C)c3ccccc23)c2ccccc12
MOLT-4
  GI50: 27.8 µM (inactive)
PC-3
  GI50: > 31.4 µM (inactive)
SNB-19
  GI50: 47 µM (inactive)
M14
  GI50: > 52.5 µM (inactive)
SF-295
  GI50: 16 µM (inactive)
HCT-116
  GI50: 55.6 µM (inactive)
OVCAR-8
  GI50: 16.2 µM (inactive)
HOP-62
  GI50: 12.9 µM (inactive)
NCI/ADR-RES
  GI50: > 63.5 µM (inactive)
OVCAR-4
  GI50: > 42.1 µM (inactive)
NCI-H226
  GI50: > 44.7 µM (inactive)
SNB-75
  GI50: > 27.4 µM (inactive)
EKVX
  GI50: > 59 µM (inactive)
SK-OV-3
  GI50: > 100 µM (inactive)
NCI-H23
  GI50: 11.4 µM (inactive)
RPMI-8226
  GI50: 17.2 µM (inactive)
IGROV-1
  GI50: > 100 µM (inactive)
SW-620
  GI50: > 57.4 µM (inactive)

## COC(=O)/C=C/c1cc(OC)c2oc(-c3ccc(OC)c(OC)c3)c(C(=O)OC)c2c1
MOLT-4
  GI50: > 100 µM (inactive)
PC-3
  GI50: > 100 µM (inactive)
SNB-19
  GI50: > 100 µM (inactive)
M14
  GI50: > 100 µM (inactive)
SF-295
  GI50: > 100 µM (inactive)
COLO 205
  GI50: > 100 µM (inactive)
OVCAR-8
  GI50: > 100 µM (inactive)
SR
  GI50: > 100 µM (inactive)
NCI/ADR-RES
  GI50: > 100 µM (inactive)
OVCAR-4
  GI50: > 100 µM (inactive)
EKVX
  GI50: > 100 µM (inactive)
SK-OV-3
  GI50: > 100 µM (inactive)
NCI-H23
  GI50: > 100 µM (inactive)
RPMI-8226
  GI50: > 100 µM (inactive)
IGROV-1
  GI50: > 100 µM (inactive)
SW-620
  GI50: > 100 µM (inactive)

## Cn1c(=O)c2nc(/N=N/Nc3nncs3)[nH]c2n(C)c1=O
MOLT-4
  GI50: > 100 µM (inactive)
PC-3
  GI50: > 100 µM (inactive)
SNB-19
  GI50: > 100 µM (inactive)
M14
  GI50: > 100 µM (inactive)
SF-295
  GI50: > 100 µM (inactive)
HCT-116
  GI50: > 100 µM (inactive)
COLO 205
  GI50: > 100 µM (inactive)
OVCAR-8
  GI50: > 100 µM (inactive)
HOP-62
  GI50: > 100 µM (inactive)
NCI/ADR-RES
  GI50: > 100 µM (inactive)
OVCAR-4
  GI50: > 100 µM (inactive)
EKVX
  GI50: > 100 µM (inactive)
SK-OV-3
  GI50: > 100 µM (inactive)
NCI-H23
  GI50: > 100 µM (inactive)
IGROV-1
  GI50: > 100 µM (inactive)
SW-620
  GI50: > 100 µM (inactive)

## COC(=O)/C=C(\C)CC/C=C(\C)CCC(O)C(C)(C)O (stereo unspecified)
MOLT-4
  GI50: 15.2 µM (inactive)
PC-3
  GI50: 14.8 µM (inactive)
SNB-19
  GI50: > 100 µM (inactive)
M14
  GI50: 27.1 µM (inactive)
SF-295
  GI50: 23.1 µM (inactive)
HCT-116
  GI50: 20.8 µM (inactive)
COLO 205
  GI50: 19.7 µM (inactive)
OVCAR-8
  GI50: 25.1 µM (inactive)
SR
  GI50: 17.8 µM (inactive)
HOP-62
  GI50: 21.8 µM (inactive)
NCI/ADR-RES
  GI50: 18.7 µM (inactive)
OVCAR-4
  GI50: 48.5 µM (inactive)
NCI-H226
  GI50: 28.8 µM (inactive)
SNB-75
  GI50: 17.1 µM (inactive)
EKVX
  GI50: 41.9 µM (inactive)
SK-OV-3
  GI50: > 100 µM (inactive)
NCI-H23
  GI50: 29.2 µM (inactive)
IGROV-1
  GI50: 25.8 µM (inactive)
SW-620
  GI50: 22.7 µM (inactive)

## Cc1cc(S(=O)(=O)Nc2nc(N)n(C)n2)c(S)cc1Cl
MOLT-4
  GI50: > 10 µM (inactive)
PC-3
  GI50: > 10 µM (inactive)
SNB-19
  GI50: > 10 µM (inactive)
M14
  GI50: > 10 µM (inactive)
SF-295
  GI50: > 10 µM (inactive)
HCT-116
  GI50: > 10 µM (inactive)
COLO 205
  GI50: > 10 µM (inactive)
OVCAR-8
  GI50: > 10 µM (inactive)
HOP-62
  GI50: > 10 µM (inactive)
NCI/ADR-RES
  GI50: > 10 µM (inactive)
OVCAR-4
  GI50: > 10 µM (inactive)
NCI-H226
  GI50: > 10 µM (inactive)
SNB-75
  GI50: > 10 µM (inactive)
EKVX
  GI50: > 10 µM (inactive)
SK-OV-3
  GI50: > 10 µM (inactive)
NCI-H23
  GI50: > 10 µM (inactive)
RPMI-8226
  GI50: > 10 µM (inactive)
IGROV-1
  GI50: > 10 µM (inactive)
SW-620
  GI50: > 10 µM (inactive)

## COc1ccc(OC)c(CC2CCc3nc(N)nc(N)c3C2)c1 (stereo unspecified)
MOLT-4
  GI50: 1.52 µM (inactive)
PC-3
  GI50: 0.0316 µM (active)
SNB-19
  GI50: 1.21 µM (inactive)
M14
  GI50: 0.342 µM (active)
HCT-116
  GI50: < 0.01 µM (active)
COLO 205
  GI50: 10.2 µM (inactive)
OVCAR-8
  GI50: 20.3 µM (inactive)
HOP-62
  GI50: 4.27 µM (inactive)
NCI/ADR-RES
  GI50: 2.8 µM (inactive)
OVCAR-4
  GI50: 28.8 µM (inactive)
NCI-H226
  GI50: 20.9 µM (inactive)
SNB-75
  GI50: 0.828 µM (active)
EKVX
  GI50: 15.6 µM (inactive)
NCI-H23
  GI50: 0.251 µM (active)
RPMI-8226
  GI50: 18.2 µM (inactive)
IGROV-1
  GI50: < 0.0453 µM (active)
SW-620
  GI50: 0.286 µM (active)

## CCOC(=O)c1nnn(CCCCO)c1C(=O)OCC
MOLT-4
  GI50: > 100 µM (inactive)
PC-3
  GI50: > 100 µM (inactive)
SNB-19
  GI50: 30.1 µM (inactive)
SF-295
  GI50: > 100 µM (inactive)
HCT-116
  GI50: > 100 µM (inactive)
COLO 205
  GI50: > 100 µM (inactive)
OVCAR-8
  GI50: > 100 µM (inactive)
SR
  GI50: > 100 µM (inactive)
HOP-62
  GI50: > 100 µM (inactive)
NCI/ADR-RES
  GI50: > 100 µM (inactive)
OVCAR-4
  GI50: > 100 µM (inactive)
NCI-H226
  GI50: > 100 µM (inactive)
SNB-75
  GI50: > 100 µM (inactive)
EKVX
  GI50: > 100 µM (inactive)
NCI-H23
  GI50: > 100 µM (inactive)
IGROV-1
  GI50: > 100 µM (inactive)
SW-620
  GI50: > 100 µM (inactive)
